Where “and” joins values, the source holds several entries; their conditions need not be identical. Equal entries are not always repeated.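 Tested at 5 concentrations; 48 h exposure; 96-well plates; endpoints linearly interpolated, else capped at highest concentration. Abbreviation: GI50, concentration required for 50% inhibition of growth. The concentration for full growth arrest is given as TGI.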
How the values were obtained:
Test in all cases: growth of human tumour cells (NCI), 48 h
786-0 renal = tested on: 786-0 renal
OVCAR-8 ovarian = tested on: OVCAR-8 ovarian
SW-620 colon = tested on: SW-620 colon
HOP-92 NSCLC = tested on: HOP-92 NSCLC
OVCAR-4 ovarian = tested on: OVCAR-4 ovarian
SK-MEL-5 melanoma = tested on: SK-MEL-5 melanoma
SF-268 CNS = tested on: SF-268 CNS
OVCAR-3 ovarian = tested on: OVCAR-3 ovarian
K-562 leukemia = tested on: K-562 leukemia
HS 578T breast = tested on: HS 578T breast

SMILES	TGI (786-0 renal) [µM]	TGI (OVCAR-8 ovarian) [µM]	TGI (SW-620 colon) [µM]	TGI (HOP-92 NSCLC) [µM]	TGI (OVCAR-4 ovarian) [µM]	TGI (SK-MEL-5 melanoma)	TGI (SF-268 CNS) [µM]	TGI (OVCAR-3 ovarian)	TGI (K-562 leukemia) [µM]	TGI (HS 578T breast) [µM]	GI50 (786-0 renal)	GI50 (OVCAR-8 ovarian)	GI50 (SW-620 colon)	GI50 (HOP-92 NSCLC) [µM]	GI50 (OVCAR-4 ovarian)	GI50 (SK-MEL-5 melanoma)	GI50 (SF-268 CNS)	GI50 (OVCAR-3 ovarian)	GI50 (K-562 leukemia)	GI50 (HS 578T breast)
COc1cc(/C=C(\NC(=O)c2ccccc2)c2nc3ncncc3[nH]2)cc(OC)c1OC	> 100	> 100	> 100	> 100	> 100	> 100 µM	> 100	> 100 µM	> 100											
NS(=O)(=O)c1ccc(NC(=O)C2C(=O)C(=O)N(c3ccc(S(N)(=O)=O)cc3)C2=O)cc1 (stereo not drawn)	> 100	> 100	> 100	> 100	> 100	> 100 µM	> 100	> 100 µM	> 100											
COc1ccccc1/C=C\C(=O)C1COCN1 (stereo not drawn)	75.5	30.6	19.4		53.2	25.1 µM	64.4	34.2 µM	> 100	50.9										
CC(C)COC1Sc2ccccc2S1	50	> 100	88.3	28.1	53.4		66.3	34.2 µM												
O=C(Nc1ccc(Cl)cc1C(=O)O)c1ccc([N+](=O)[O-])cc1	34.1	> 100	> 100	22.6	47.1	48.7 µM	> 100	56.6 µM	90.4											
CCCCNC(=S)OCCC(C)CCCC(C)C (stereo not drawn)	> 100	> 100	> 100		> 100	> 100 µM	> 100		> 100											
N#CC1(C#N)C=CC(=C2OCC3CCCN23)C=C1 (stereo not drawn)	> 100	> 100	> 100	> 100	> 100	> 100 µM	> 100		> 100											
CCCCCCCCCCCCN=C(N)c1ccc(N2CCN(c3ccc(C(N)=NCCCCCCCCCCCC)cc3)CC2)cc1	15.6	40.1	28.1	2.86	20.9	21.1 µM	21.1	20.7 µM	> 50		6.23 µM	11.4 µM	9.31 µM	0.614	8.88 µM	10.5 µM	9.84 µM	8.66 µM	6.82 µM	
NCCCNc1nc2ccccc2c2c(=O)c3cccc(Cl)c3sc12	3.05			2.63		2.94 µM					1.61 µM			1.19		1.58 µM				
O=C1Nc2ccccc2/C1=C\c1nc(-c2ccccc2F)n2ccccc12	10.1	8.12	14.2		4.49	11.4 µM	18.7	4.38 µM	19.7		3.44 µM	2.49 µM	3.97 µM		1.81 µM	2.8 µM	4.65 µM	1.9 µM	6.35 µM	
O=C1C=C2CCCC2C(C(=O)O)(C(=O)O)C1 (stereo not drawn)	> 100	> 100	> 100	> 100	> 100	> 100 µM	> 100	> 100 µM	> 100											
CC1=CP(=O)(c2ccccc2)C=C(C)C1=C(Cl)Cl (stereo not drawn)	16.5	> 100	16.6		26	31.2 µM	42.4	30.9 µM	13.6											
O=C(CC1C(=O)Nc2ccccc2S1(=O)=O)Nc1ccc(Cl)cc1 (stereo not drawn)	38.7	> 100	> 100	44.5	77.2	59.1 µM	28.6	39.4 µM	48.9											
Clc1cccc(CNc2c3ccccc3nc3ccccc23)c1	3.2	8.93	3.91	3.82	7.95	3.13 µM	7.88	4.56 µM	11.2		1.66 µM	2.41 µM	1.47 µM	1.12	2.15 µM	1.72 µM	2.54 µM	2.1 µM	2.39 µM	
COc1ccc(O)cc1C(O)c1ccccc1 (stereo not drawn)	> 100	> 100	> 100	> 100	> 100	> 100 µM	> 100	> 100 µM	> 100											
CCCCCCCCCCCCCCCC(=O)OCCOCCOCCOCCOCCOC(=O)CCCCCCCCCCCCCCC	> 100	> 100	> 100	> 100	> 100	> 100 µM	> 100	> 100 µM	> 100											
Nc1nc2c(-c3ccc([N+](=O)[O-])cc3)nnn2c2ccccc12	> 100	> 100	> 100	> 100	> 100		> 100	95.3 µM	> 100											
C[N+](C)(C)c1cc[c]([Sn]([c]2ccc([N+](C)(C)C)cc2)([c]2ccc([N+](C)(C)C)cc2)[c]2ccc([N+](C)(C)C)cc2)cc1	> 100	> 100	> 100	> 100	> 100	> 100 µM	> 100	> 100 µM	> 100		> 100 µM	> 100 µM	> 100 µM	> 100	> 100 µM	> 100 µM	> 100 µM	> 100 µM	> 100 µM	
CCc1cc2c(O)c(c1)Cc1cc(CC)cc(c1O)Cc1cc(CC)cc(c1O)Cc1cc(CC)cc(c1O)Cc1cc(CC)cc(c1O)Cc1cc(CC)cc(c1O)Cc1cc(CC)cc(c1O)C2	> 100	> 100	> 100	> 100	> 100	> 100 µM	> 100	> 100 µM												
CC1C=CC(C(N)C(=O)O)O1 (stereo not drawn)	> 100	> 100	> 100	> 100	> 100	> 100 µM	> 100	> 100 µM	> 100											
Oc1[nH]c2ccccc2c1/C=c1/ccc2c(c1)N=C(c1ccc(C(F)(F)F)cc1)N=2	3.56	20.3	5.55		15.8	20.9 µM	11.9	3.89 µM	3.46	12.7	1.48 µM	5.94 µM	1.92 µM		3.94 µM	8.72 µM	3.46 µM	0.74 µM	1.41 µM	3.09 µM
c1ccc2c(c1)Cc1c(Cc3csc4ccccc34)ccc3cccc-2c13	> 100	> 100	> 100	> 100	> 100	> 100 µM	> 100	> 100 µM	> 100											
COc1ccc(/C=C/C(=O)c2c(-c3ccccc3)nn(C)c(=O)c2N2CCOCC2)cc1	> 100	> 100	> 100	> 100		> 100 µM	> 100		> 100											
CCOC(=N)CC(=O)Nc1ccccc1	> 46.4	> 21.5	> 67.6		> 46.4	> 46.4 µM	> 46.4	> 31.6 µM	> 31.6											
N#C/C(=C1\OC(=N)C(c2ccccc2)C1=O)c1ccccc1 (stereo not drawn)	> 56.8	> 89.2	59.1	> 71.3	> 100	> 64.2 µM	> 100	> 67.7 µM	74.6											
C/C=C/C(=O)[O-].C/C=C/C(=O)[O-].N.N.N.N.[Co+3].[O-][Cl+3]([O-])([O-])[O-]	> 100	> 100	> 100	> 100	> 100	> 100 µM	> 100	> 100 µM	> 100		> 100 µM	> 100 µM	> 100 µM	> 100	> 100 µM	> 100 µM	> 100 µM	> 100 µM	> 100 µM	
Cc1ccc(N=C2N=C(N3CC(C)OC(C)C3)c3ccccc32)cc1 (stereo not drawn)	> 100	> 100	> 100	26.5	52.1	48.5 µM	> 100	73.4 µM	> 100											
CC[C@H](C)[C@H](NC(=O)[C@H]1CCCCN1C)C(=O)N(C)[C@H](C[C@@H](OC(C)=O)c1cccc(C(=O)N[C@@H](Cc2ccccc2)C[C@H](C)C(=O)O)n1)C(C)C	> 25	> 25	> 25		> 25	0.0193 µM and 0.00279 µM	> 25	0.0165 µM and < 0.0025 µM	> 25	> 25	0.00555 µM and 0.0025 µM	0.00542 µM and 0.0025 µM	0.000493 µM and 0.0025 µM		0.057 µM and 0.0168 µM	0.000482 µM and 0.0025 µM	0.00435 µM and 0.0025 µM	0.000389 µM and < 0.0025 µM	0.000539 µM and 0.0025 µM	0.002 µM and 0.0025 µM
O=C(N=c1nc(NC(=O)c2ccccc2)ss1)c1ccccc1	> 100	82.8	> 100		> 100	34.7 µM	> 100	55.7 µM	> 100											
COc1ccc2c(c1)/C(=C\c1c(-c3cc(OC)ccc3OC)nc3sccn13)C(=O)N2	1.78			3.47	2.87		4.32	14.3 µM			0.561 µM			1.76	1.53 µM		2.08 µM	6.38 µM and 3.51 µM	5.88 µM	
